# Paper PMC7714071, “Interaction of amyloid beta with humanin and acetylcholinesterase is modulated by ATP” (FEBS Open Bio, 2020)
# Columns and labels:
# [1] = tested on: Aβ; conditions: cited from earlier work
# Source text: Soluble oligomers of proteins implicated in different diseases are primarily thought to be the main toxic form as opposed to the larger fibrillar assemblies. Aβ regions containing Tyr and Ser (H6DSGY10 and G25SNKG29) (Fig. 1) along with post‐translational modifications of these regions, have been implicated in misfolding, oligomerization, or fibril formation of Aβ [5, 10, 11, 16, 41]. […] In addition to ATP, the glycosaminoglycan, heparan sulfate (HS), has been previously reported to i ... || Access to the central domain of Aβ (residues 17–24) flanked by Lys‐16 and Lys‐28, known to be a critical structural element in fibrillar Aβ aggregates, might be regulated by binding of AChE and HN to their overlapping binding sites on Aβ. […] Moreover, we s ...
# [2] = tested on: AChE; experiment: ELISA, binding of biotinylated-Aβ40 to immobilised AChE; design: species or system human
# Source text: Most of the material used was purchased as we previously reported. Nitrocellulose membranes, PBS, ATP, recombinant human AChE (C1682, UniProt accession ID: C9JD78), streptavidin‐conjugated horseradish peroxidase (HRP) conjugate, Ponceau S solution, PMSF, and HS sodium salt from bovine kidney were purchased from Sigma‐Aldrich (St. Louis, MO, USA). Mouse IgG isotype control (mIgG), ultra 3,3′,5,5′‐tetramethylbenzidine (TMB)‐ELISA substrate solution, Halt Protease and Phosphatase Inhibitor Cocktail, HN polyclonal antibody (rabbit, PA1‐41610), and Nunc MaxiSorpTM 96‐well flat bottom plates were from Thermo Fisher (Waltham, MA, USA). […]
# ELISAs were carried out as we previously reported. […] TBST was then used to wash the wells 4× before proceeding in one of two ways: (a) biotinylated samples were analyzed by adding 100 µL streptavidin–HRP conjugate in TBST (1 : 2500 dilution) to the samples followed by incubation for 3 h at RT on a shaker, or (b) samples without biotin were analyzed by adding 100 µL TBST containing the primary antibody as per the manufacturer's recommendation, incubating for 3 h at RT on a shaker, followed by washing the wells 4× with TBST. […] The reaction was stopped with 100 µL 2 M H2SO4 after incubating at RT for 0.5–15 min, resulting in a yellow color change, measured by absorbance at 450 nm. […] Statistical analysis was determined by the […]
compound,measurement,setting,value
"Nc1ncnc2c1ncn2[C@@H]1O[C@H](COP(=O)(O)OP(=O)(O)OP(=O)(O)O)[C@@H](O)[C@H]1O [ATP, Adenosine triphosphate]",effect on misfolding of Aβ,"[1]; physiological intracellular concentrations, enhanced by magnesium",reduced misfolding of Aβ
same,effect of ATP on affinity of AChE to Aβ40,"[2]; 200 μM ATP, 30 min preincubation RT, pH 7.5, 10 mM MgCl2, three experiments in triplicate, Fig. 3A",reduced the affinity
Humanin [HN],Aβ aggregation in presence of both HN and AChE,[1]; to levels close to HN alone,greatly diminished
heparan sulfate [HS],effect of HS on Aβ aggregation,[1],increasing their aggregation
same,effect of HS on binding of Aβ40 to AChE,"[2]; AChE 10 nM on wells, biotinylated-Aβ 1 μM, increasing HS, three independent assays, Fig. 2C",No effects
